According to patent US20110071108A1, “Beta-Cyclodextrin Derivatives as Antibacterial Agents” (Pinnacle Pharmaceuticals, Inc., priority 2005, published 2011):

Legend:
Test in all cases: Bacterial panel testing, MIC by broth microdilution
Type in all cases: cell-based
Details in all cases: 20-24 hours growth
[1] = test system: Salmonella choleraesuis
How it was run: (§1)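 Strains grown 2-4 h, 37° C, MH or BHI broth per strain; McFarland-standardized, diluted in media. Cpd 10 μg/ml in DMSO, 2-fold serial dilution cols 2-12. Rifampicin included. 20-24 h growth; clear wells scored.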

[2] = test system: Bacillus atrophaeus
How it was run: as §1

[3] = test system: Pseudomonas aeruginosa
How it was run: as §1

[4] = test system: Staphylococcus aureus
How it was run: as §1

[5] = test system: Enterococcus faecium
How it was run: as §1

[6] = test system: Eschericia coli
How it was run: as §1

O[C@@H]1[C@@H](O)[C@H]2O[C@H]3[C@H](O)[C@@H](O)[C@@H](O[C@H]4[C@H](O)[C@@H](O)[C@@H](O[C@H]5[C@H](O)[C@@H](O)[C@@H](O[C@H]6[C@H](O)[C@@H](O)[C@@H](O[C@H]7[C@H](O)[C@@H](O)[C@@H](O[C@H]8[C@H](O)[C@@H](O)[C@@H](O[C@@H]1[C@@H](CSCc1ccccc1)O2)O[C@@H]8CSCc1ccccc1)O[C@@H]7CSCc1ccccc1)O[C@@H]6CSCc1ccccc1)O[C@@H]5CSCc1ccccc1)O[C@@H]4CSCc1ccccc1)O[C@@H]3CSCc1ccccc1
>200 µg/mL: MIC SC [1] | MIC BA [2] | MIC PA [3] | MIC SA [4] | MIC EF [5] | MIC EC [6]

O[C@@H]1[C@@H](O)[C@H]2O[C@H]3[C@H](O)[C@@H](O)[C@@H](O[C@H]4[C@H](O)[C@@H](O)[C@@H](O[C@H]5[C@H](O)[C@@H](O)[C@@H](O[C@H]6[C@H](O)[C@@H](O)[C@@H](O[C@H]7[C@H](O)[C@@H](O)[C@@H](O[C@H]8[C@H](O)[C@@H](O)[C@@H](O[C@@H]1[C@@H](Cn1ccnc1)O2)O[C@@H]8Cn1ccnc1)O[C@@H]7Cn1ccnc1)O[C@@H]6Cn1ccnc1)O[C@@H]5Cn1ccnc1)O[C@@H]4Cn1ccnc1)O[C@@H]3Cn1ccnc1
>200 µg/mL: MIC SC [1] | MIC BA [2] | MIC PA [3] | MIC SA [4] | MIC EF [5] | MIC EC [6]

OC1C2OC(CNC(=S)Nc3ccccc3)C(OC3OC(CNC(=S)Nc4ccccc4)C(OC4OC(CNC(=S)Nc5ccccc5)C(OC5OC(CNC(=S)Nc6ccccc6)C(OC6OC(CNC(=S)Nc7ccccc7)C(OC7OC(CNC(=S)Nc8ccccc8)C(OC8OC(CNC(=S)Nc9ccccc9)C(O2)C(O)C8O)C(O)C7O)C(O)C6O)C(O)C5O)C(O)C4O)C(O)C3O)C1O (stereo not drawn)
>200 µg/mL: MIC SC [1] | MIC BA [2] | MIC PA [3] | MIC SA [4] | MIC EF [5] | MIC EC [6]

O=C(C1CCCO1)N1CCN(CC2OC3OC4C(CN5CCN(C(=O)C6CCCO6)CC5)OC(OC5C(CN6CCN(C(=O)C7CCCO7)CC6)OC(OC6C(CN7CCN(C(=O)C8CCCO8)CC7)OC(OC7C(CN8CCN(C(=O)C9CCCO9)CC8)OC(OC8C(CN9CCN(C(=O)C%10CCCO%10)CC9)OC(OC9C(CN%10CCN(C(=O)C%11CCCO%11)CC%10)OC(OC2C(O)C3O)C(O)C9O)C(O)C8O)C(O)C7O)C(O)C6O)C(O)C5O)C(O)C4O)CC1 (stereo not drawn)
>200 µg/mL: MIC SC [1] | MIC BA [2] | MIC PA [3] | MIC SA [4] | MIC EF [5] | MIC EC [6]

O=C(Cn1ccnc1)NCC1OC2OC3C(CNC(=O)Cn4ccnc4)OC(OC4C(CNC(=O)Cn5ccnc5)OC(OC5C(CNC(=O)Cn6ccnc6)OC(OC6C(CNC(=O)Cn7ccnc7)OC(OC7C(CNC(=O)Cn8ccnc8)OC(OC8C(CNC(=O)Cn9ccnc9)OC(OC1C(O)C2O)C(O)C8O)C(O)C7O)C(O)C6O)C(O)C5O)C(O)C4O)C(O)C3O (stereo not drawn)
>200 µg/mL: MIC SC [1] | MIC BA [2] | MIC PA [3] | MIC SA [4] | MIC EF [5] | MIC EC [6]

Cl.Cl.Cl.Cl.Cl.Cl.NCCCSCC1OC2OC3C(CSCCCN)OC(OC4C(CSCCCN)OC(OC5C(CSCCCN)OC(OC6C(CSCCCN)OC(OC7C(CSCCCN)OC(OC1C(O)C2O)C(O)C7O)C(O)C6O)C(O)C5O)C(O)C4O)C(O)C3O (stereo not drawn)
>200 µg/mL: MIC SC [1] | MIC BA [2] | MIC PA [3] | MIC SA [4] | MIC EF [5] | MIC EC [6]

OC[C@H]1O[C@@H]2O[C@H]3[C@H](O)[C@@H](O)[C@@H](O[C@H]4[C@H](O)[C@@H](O)[C@@H](O[C@H]5[C@H](O)[C@@H](O)[C@@H](O[C@H]6[C@H](O)[C@@H](O)[C@@H](O[C@H]7[C@H](O)[C@@H](O)[C@@H](O[C@H]8[C@H](O)[C@@H](O)[C@@H](O[C@H]1[C@H](O)[C@H]2O)O[C@@H]8CO)O[C@@H]7CO)O[C@@H]6CO)O[C@@H]5CO)O[C@@H]4CO)O[C@@H]3CO
>200 µg/mL: MIC SC [1] | MIC BA [2] | MIC PA [3] | MIC SA [4] | MIC EF [5] | MIC EC [6]

OCCCNC[C@H]1O[C@@H]2O[C@H]3[C@H](O)[C@@H](O)[C@@H](O[C@H]4[C@H](O)[C@@H](O)[C@@H](O[C@H]5[C@H](O)[C@@H](O)[C@@H](O[C@H]6[C@H](O)[C@@H](O)[C@@H](O[C@H]7[C@H](O)[C@@H](O)[C@@H](O[C@H]8[C@H](O)[C@@H](O)[C@@H](O[C@H]1[C@H](O)[C@H]2O)O[C@@H]8CNCCCO)O[C@@H]7CNCCCO)O[C@@H]6CNCCCO)O[C@@H]5CNCCCO)O[C@@H]4CNCCCO)O[C@@H]3CNCCCO
>200 µg/mL: MIC SC [1] | MIC BA [2] | MIC PA [3] | MIC SA [4] | MIC EF [5] | MIC EC [6]

Cl.Cl.Cl.Cl.Cl.Cl.Cl.N[C@@H](CC(=O)O)C(=O)NC[C@H]1O[C@@H]2O[C@H]3[C@H](O)[C@@H](O)[C@@H](O[C@H]4[C@H](O)[C@@H](O)[C@@H](O[C@H]5[C@H](O)[C@@H](O)[C@@H](O[C@H]6[C@H](O)[C@@H](O)[C@@H](O[C@H]7[C@H](O)[C@@H](O)[C@@H](O[C@H]8[C@H](O)[C@@H](O)[C@@H](O[C@H]1[C@H](O)[C@H]2O)O[C@@H]8CNC(=O)[C@@H](N)CC(=O)O)O[C@@H]7CNC(=O)[C@@H](N)CC(=O)O)O[C@@H]6CNC(=O)[C@@H](N)CC(=O)O)O[C@@H]5CNC(=O)[C@@H](N)CC(=O)O)O[C@@H]4CNC(=O)[C@@H](N)CC(=O)O)O[C@@H]3CNC(=O)[C@@H](N)CC(=O)O
>200 µg/mL: MIC SC [1] | MIC BA [2] | MIC PA [3] | MIC SA [4] | MIC EF [5] | MIC EC [6]

CC(=O)NCC1OC2OC3C(CNC(C)=O)OC(OC4C(CNC(C)=O)OC(OC5C(CNC(C)=O)OC(OC6C(CNC(C)=O)OC(OC7C(CNC(C)=O)OC(OC8C(CNC(C)=O)OC(OC1C(O)C2O)C(O)C8O)C(O)C7O)C(O)C6O)C(O)C5O)C(O)C4O)C(O)C3O (stereo not drawn)
>200 µg/mL: MIC SC [1] | MIC BA [2] | MIC PA [3] | MIC SA [4] | MIC EF [5] | MIC EC [6]

Cl.Cl.Cl.Cl.Cl.Cl.Cl.N[C@@H](Cc1ccc(OCc2ccccc2)cc1)C(=O)NC[C@H]1O[C@@H]2O[C@H]3[C@H](O)[C@@H](O)[C@@H](O[C@H]4[C@H](O)[C@@H](O)[C@@H](O[C@H]5[C@H](O)[C@@H](O)[C@@H](O[C@H]6[C@H](O)[C@@H](O)[C@@H](O[C@H]7[C@H](O)[C@@H](O)[C@@H](O[C@H]8[C@H](O)[C@@H](O)[C@@H](O[C@H]1[C@H](O)[C@H]2O)O[C@@H]8CNC(=O)[C@@H](N)Cc1ccc(OCc2ccccc2)cc1)O[C@@H]7CNC(=O)[C@@H](N)Cc1ccc(OCc2ccccc2)cc1)O[C@@H]6CNC(=O)[C@@H](N)Cc1ccc(OCc2ccccc2)cc1)O[C@@H]5CNC(=O)[C@@H](N)Cc1ccc(OCc2ccccc2)cc1)O[C@@H]4CNC(=O)[C@@H](N)Cc1ccc(OCc2ccccc2)cc1)O[C@@H]3CNC(=O)[C@@H](N)Cc1ccc(OCc2ccccc2)cc1
>200 µg/mL: MIC SC [1] | MIC BA [2] | MIC PA [3] | MIC SA [4] | MIC EF [5] | MIC EC [6]

CC(C)[C@H](N)C(=O)NC[C@H]1O[C@@H]2O[C@H]3[C@H](O)[C@@H](O)[C@@H](O[C@H]4[C@H](O)[C@@H](O)[C@@H](O[C@H]5[C@H](O)[C@@H](O)[C@@H](O[C@H]6[C@H](O)[C@@H](O)[C@@H](O[C@H]7[C@H](O)[C@@H](O)[C@@H](O[C@H]8[C@H](O)[C@@H](O)[C@@H](O[C@H]1[C@H](O)[C@H]2O)O[C@@H]8CNC(=O)[C@@H](N)C(C)C)O[C@@H]7CNC(=O)[C@@H](N)C(C)C)O[C@@H]6CNC(=O)[C@@H](N)C(C)C)O[C@@H]5CNC(=O)[C@@H](N)C(C)C)O[C@@H]4CNC(=O)[C@@H](N)C(C)C)O[C@@H]3CNC(=O)[C@@H](N)C(C)C.Cl.Cl.Cl.Cl.Cl.Cl.Cl
>200 µg/mL: MIC SC [1] | MIC BA [2] | MIC PA [3] | MIC SA [4] | MIC EF [5] | MIC EC [6]

Cl.Cl.Cl.Cl.Cl.Cl.Cl.O=C(NCC1OC2OC3C(CNC(=O)C4CC(O)CN4)OC(OC4C(CNC(=O)C5CC(O)CN5)OC(OC5C(CNC(=O)C6CC(O)CN6)OC(OC6C(CNC(=O)C7CC(O)CN7)OC(OC7C(CNC(=O)C8CC(O)CN8)OC(OC8C(CNC(=O)C9CC(O)CN9)OC(OC1C(O)C2O)C(O)C8O)C(O)C7O)C(O)C6O)C(O)C5O)C(O)C4O)C(O)C3O)C1CC(O)CN1 (stereo not drawn)
>200 µg/mL: MIC SC [1] | MIC BA [2] | MIC PA [3] | MIC SA [4] | MIC EF [5] | MIC EC [6]

Cc1c(NC[C@H]2O[C@@H]3O[C@H]4[C@H](O)[C@@H](O)[C@@H](O[C@H]5[C@H](O)[C@@H](O)[C@@H](O[C@H]6[C@H](O)[C@@H](O)[C@@H](O[C@H]7[C@H](O)[C@@H](O)[C@@H](O[C@H]8[C@H](O)[C@@H](O)[C@@H](O[C@H]9[C@H](O)[C@@H](O)[C@@H](O[C@H]2[C@H](O)[C@H]3O)O[C@@H]9CNc2c(C)n(C)n(-c3ccccc3)c2=O)O[C@@H]8CNc2c(C)n(C)n(-c3ccccc3)c2=O)O[C@@H]7CNc2c(C)n(C)n(-c3ccccc3)c2=O)O[C@@H]6CNc2c(C)n(C)n(-c3ccccc3)c2=O)O[C@@H]5CNc2c(C)n(C)n(-c3ccccc3)c2=O)O[C@@H]4CNc2c(C)n(C)n(-c3ccccc3)c2=O)c(=O)n(-c2ccccc2)n1C
>200 µg/mL: MIC SC [1] | MIC BA [2] | MIC PA [3] | MIC SA [4] | MIC EF [5] | MIC EC [6]
